Laboratory results: patent publication US6706663B2, “Herbicidal 3-heterocyclic substituted benzisothiazole and benzisoxazole compounds” (Wyeth, priority 2000, dated 2004)

Key:
[1] = system: GLXMAW (Soybean, Williams); test: Preemergence herbicidal evaluation; assay type: in vivo, Glycine max, (L.) Merr. cv Williams; settings: rated 4-5 weeks after treatment
[2] = system: ZEAMX (Corn, Field); test: Preemergence herbicidal evaluation; assay type: in vivo, Zea mays, L.; settings: rated 4-5 weeks after treatment
[3] = system: CYPSE (Cyperus serotinus); test: Flooded paddy, preemergence weed control; assay type: in vivo, Rottb.; settings: rated 3-4 weeks after treatment, 0-9 rating scale
Method in brief: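 Seeds or propagules were planted 0.5 cm deep in silt loam and flooded to 1.5–3 cm. Compounds in 50/50 v/v aqueous/acetone were pipetted into the flood water at about 0.0080 to 0.1250 kg/ha. After 3–4 weeks in the greenhouse, effect was rated visually on a 0–9 scale versus untreated control.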

[4] = system: ECHCG (Echinochloa crus-galli); test: Postemergence herbicidal evaluation; assay type: in vivo, (L.) Beau; settings: for ECHCG herbicidal rating: postemergence
Method in brief: (§1)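 Visual 0–9 injury scores versus control plants, covering stand, vigour, malformation, size, chlorosis and general appearance, taken four to five weeks post-spray and averaged over replicate tests. Plants were sprayed at roughly two weeks old and held on greenhouse benches.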

[5] = system: IPOHE (Ipomoea hederacea); test: Preemergence herbicidal evaluation; assay type: in vivo, (L.) Jacq.; settings: rated 4-5 weeks after treatment
[6] = system: ORYSAT (Rice, Tebonnet); test: Flooded paddy, post-transplant rice tolerance; assay type: in vivo, Oryza sativa, (L.) Tebonnet; settings: flooded paddy, post-transplant rice, rated 3-4 weeks after treatment, 0-9 rating scale
Method in brief: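 Scores (0-9) reflect visual injury relative to untreated plants in flooded silt loam. Each pot held two transplanted ten-day-old seedlings under 1.5 to 3 cm standing water in the greenhouse.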

[7] = system: ABUTH (Abutilon theophrasti); test: Preemergence herbicidal evaluation; assay type: in vivo, Medic.; settings: rated 4-5 weeks after treatment
[8] = system: TRZAWR (Wheat, Winter, cv Riband); test: Postemergence herbicidal evaluation; assay type: in vivo, Triticum aestivum; settings: for TRZAWR herbicidal rating: postemergence
Method in brief: as §1

[9] = system: SAGPY (Sagittaria pygmaea); test: Flooded paddy, preemergence weed control; assay type: in vivo, L.; settings: rated 3-4 weeks after treatment, 0-9 rating scale
Method in brief: (§2)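 Ratings of 0-9 reflect visual comparison with a control for stand, vigor, deformity, size, chlorosis and overall look. Propagules were placed in shallow silt loam (top 0.5 cm) under a continuous 1.5–3 cm flood and grown in the greenhouse.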

[10] = system: AMBEL (Ambrosia artemisifolia); test: Preemergence herbicidal evaluation; assay type: in vivo, L.; settings: rated 4-5 weeks after treatment
Method in brief: (§3)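 Rating 0–9, visual, vs control; 4–5 wk after spraying seeded cups with compound in aq. acetone; conventional greenhouse care.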

[11] = system: CASOB (Cassia obtusifolia); test: Preemergence herbicidal evaluation; assay type: in vivo, L.; settings: rated 4-5 weeks after treatment
Method in brief: as §3

[12] = system: CHEAL (Chenopodium album); test: Preemergence herbicidal evaluation; assay type: in vivo, L.; settings: rated 4-5 weeks after treatment
Method in brief: as §3

[13] = system: SETVI (Setaria viridis); test: Postemergence herbicidal evaluation; assay type: in vivo, (L.) Beau; settings: for SETVI herbicidal rating: postemergence
Method in brief: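 Seedlings about two weeks old were sprayed with compound in 50/50 acetone/water plus 0.5% TWEEN 20, at the equivalent of about 0.0040 to 1.000 kg/ha. Plants were kept in a greenhouse and visually rated 0-9 against a control four to five weeks after treatment. Repeat tests were averaged.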

[14] = system: CYPIR (Cyperus iria); test: Flooded paddy, preemergence weed control; assay type: in vivo; settings: rated 3-4 weeks after treatment, 0-9 rating scale
Method in brief: as §2

[15] = system: MOOVA (Monochoria vaginalis); test: Flooded paddy, preemergence weed control; assay type: in vivo, Presl.; settings: rated 3-4 weeks after treatment, 0-9 rating scale
Method in brief: as §2

[16] = system: ECHORC (Echinochloa oryzoides); test: Flooded paddy, preemergence weed control; assay type: in vivo, Echinochloa oryzoides (Ard.) Fritsch.; settings: rated 3-4 weeks after treatment, 0-9 rating scale
Method in brief: as §2

C[C@H]1OC(c2nsc3ccc(-n4c(=O)cc(C(F)(F)F)n(C)c4=O)cc23)O[C@@H]1C [Compound 48, 3-[3-[(4R,5R)-4,5-dimethyl-1,3-dioxolan-2-yl]-1,2-benzisothiazol-5-yl]-1-methyl-6-(trifluoromethyl)uracil]
Preemergence herbicidal rating GLXMAW ([1]; Rate 0.0620 kg/ha): 9.0 | Preemergence herbicidal rating GLXMAW ([1]; Rate 0.1250 kg/ha): 9.0 | Preemergence herbicidal rating GLXMAW ([1]; Rate 0.2500 kg/ha): 9.0 | Preemergence herbicidal rating ZEAMX ([2]; Rate 0.0620 kg/ha): 7.5 | Preemergence herbicidal rating ZEAMX ([2]; Rate 0.1250 kg/ha): 8.0 | Preemergence herbicidal rating ZEAMX ([2]; Rate 0.2500 kg/ha): 9.0 | herbicidal rating, CYPSE ([3]; rate 0.0320 kg/ha): 9.0 | herbicidal rating, CYPSE ([3]; rate 0.1250 kg/ha): 9.0 | Postemergence herbicidal rating, ECHCG ([4]; rate 0.0320 kg/ha): 5.0 | Postemergence herbicidal rating, ECHCG ([4]; rate 0.0620 kg/ha): 3.0 | Preemergence herbicidal rating IPOHE ([5]; Rate 0.0620 kg/ha): 8.0 | Preemergence herbicidal rating IPOHE ([5]; Rate 0.1250 kg/ha): 8.5 | Preemergence herbicidal rating IPOHE ([5]; Rate 0.2500 kg/ha): 9.0 | herbicidal rating, ORYSAT (rice tolerance) ([6]; rate 0.0080 kg/ha): 5.0 | herbicidal rating, ORYSAT (rice tolerance) ([6]; rate 0.0320 kg/ha): 8.0 | herbicidal rating, ORYSAT (rice tolerance) ([6]; rate 0.1250 kg/ha): 9.0 | Preemergence herbicidal rating ABUTH ([7]; Rate 0.0620 kg/ha): 9.0 | Preemergence herbicidal rating ABUTH ([7]; Rate 0.1250 kg/ha): 9.0 | Preemergence herbicidal rating ABUTH ([7]; Rate 0.2500 kg/ha): 9.0 | Postemergence herbicidal rating, TRZAWR ([8]; rate 0.0320 kg/ha): 5.0 | Postemergence herbicidal rating, TRZAWR ([8]; rate 0.0620 kg/ha): 5.7 | herbicidal rating, SAGPY ([9]; rate 0.0080 kg/ha): 0.0 | herbicidal rating, SAGPY ([9]; rate 0.0320 kg/ha): 7.5 | herbicidal rating, SAGPY ([9]; rate 0.1250 kg/ha): 9.0 | Preemergence herbicidal rating AMBEL ([10]; Rate 0.0620 kg/ha): 9.0 | Preemergence herbicidal rating AMBEL ([10]; Rate 0.1250 kg/ha): 9.0 | Preemergence herbicidal rating AMBEL ([10]; Rate 0.2500 kg/ha): 9.0 | Preemergence herbicidal rating CASOB ([11]; Rate 0.0620 kg/ha): 5.0 | Preemergence herbicidal rating CASOB ([11]; Rate 0.1250 kg/ha): 7.5 | Preemergence herbicidal rating CASOB ([11]; Rate 0.2500 kg/ha): 9.0 | Preemergence herbicidal rating CHEAL ([12]; Rate 0.0620 kg/ha): 9.0 | Preemergence herbicidal rating CHEAL ([12]; Rate 0.1250 kg/ha): 9.0 | Preemergence herbicidal rating CHEAL ([12]; Rate 0.2500 kg/ha): 9.0 | Postemergence herbicidal rating, SETVI ([13]; rate 0.0320 kg/ha): 9.0 | Postemergence herbicidal rating, SETVI ([13]; rate 0.0620 kg/ha): 9.0 | herbicidal rating, CYPIR ([14]; rate 0.0080 kg/ha): 0.0 | herbicidal rating, CYPIR ([14]; rate 0.0320 kg/ha): 8.0 | herbicidal rating, CYPIR ([14]; rate 0.1250 kg/ha): 9.0 | herbicidal rating, MOOVA ([15]; rate 0.0320 kg/ha): 9.0 | herbicidal rating, MOOVA ([15]; rate 0.1250 kg/ha): 9.0 | herbicidal rating, ECHORC ([16]; rate 0.0080 kg/ha): 8.0 | herbicidal rating, ECHORC ([16]; rate 0.0320 kg/ha): 9.0 | herbicidal rating, ECHORC ([16]; rate 0.1250 kg/ha): 9.0

Cc1nn(-c2nsc3ccc(-n4c(=O)cc(C(F)(F)F)n(C)c4=O)cc23)c(C)c1C [Compound 49, 1-methyl-6-(trifluoromethyl)-3-[3-(3,4,5-trimethylpyrazol-1-yl)-1,2-benzisothiazol-5-yl]uracil]
Preemergence herbicidal rating GLXMAW ([1]; Rate 0.0620 kg/ha): 0.0 | Preemergence herbicidal rating GLXMAW ([1]; Rate 0.1250 kg/ha): 0.0 | Preemergence herbicidal rating GLXMAW ([1]; Rate 0.2500 kg/ha): 0.0 | Preemergence herbicidal rating ZEAMX ([2]; Rate 0.0620 kg/ha): 0.0 | Preemergence herbicidal rating ZEAMX ([2]; Rate 0.1250 kg/ha): 0.0 | Preemergence herbicidal rating ZEAMX ([2]; Rate 0.2500 kg/ha): 0.0 | herbicidal rating, CYPSE ([3]; rate 0.0320 kg/ha): 0.0 | herbicidal rating, CYPSE ([3]; rate 0.1250 kg/ha): 0.0 | ECHCG herbicidal rating ([4]; rate 0.0320 kg/ha): 0.0 | ECHCG herbicidal rating ([4]; rate 0.0620 kg/ha): 0.0 | Preemergence herbicidal rating IPOHE ([5]; Rate 0.0620 kg/ha): 0.0 | Preemergence herbicidal rating IPOHE ([5]; Rate 0.1250 kg/ha): 0.0 | Preemergence herbicidal rating IPOHE ([5]; Rate 0.2500 kg/ha): 0.0 | herbicidal rating, ORYSAT (rice tolerance) ([6]; rate 0.0320 kg/ha): 0.0 | herbicidal rating, ORYSAT (rice tolerance) ([6]; rate 0.1250 kg/ha): 0.0 | Preemergence herbicidal rating ABUTH ([7]; Rate 0.0620 kg/ha): 0.0 | Preemergence herbicidal rating ABUTH ([7]; Rate 0.1250 kg/ha): 0.0 | Preemergence herbicidal rating ABUTH ([7]; Rate 0.2500 kg/ha): 0.0 | TRZAWR herbicidal rating ([8]; rate 0.0320 kg/ha): 0.5 | TRZAWR herbicidal rating ([8]; rate 0.0620 kg/ha): 1.5 | herbicidal rating, SAGPY ([9]; rate 0.0320 kg/ha): 0.0 | herbicidal rating, SAGPY ([9]; rate 0.1250 kg/ha): 0.0 | Preemergence herbicidal rating AMBEL ([10]; Rate 0.0620 kg/ha): 0.0 | Preemergence herbicidal rating AMBEL ([10]; Rate 0.1250 kg/ha): 0.0 | Preemergence herbicidal rating AMBEL ([10]; Rate 0.2500 kg/ha): 0.0 | Preemergence herbicidal rating CASOB ([11]; Rate 0.0620 kg/ha): 0.0 | Preemergence herbicidal rating CASOB ([11]; Rate 0.1250 kg/ha): 0.0 | Preemergence herbicidal rating CASOB ([11]; Rate 0.2500 kg/ha): 0.0 | Preemergence herbicidal rating CHEAL ([12]; Rate 0.0620 kg/ha): 0.0 | Preemergence herbicidal rating CHEAL ([12]; Rate 0.1250 kg/ha): 0.0 | Preemergence herbicidal rating CHEAL ([12]; Rate 0.2500 kg/ha): 0.0 | SETVI herbicidal rating ([13]; rate 0.0320 kg/ha): 0.0 | SETVI herbicidal rating ([13]; rate 0.0620 kg/ha): 0.0 | herbicidal rating, CYPIR ([14]; rate 0.0320 kg/ha): 0.0 | herbicidal rating, CYPIR ([14]; rate 0.1250 kg/ha): 0.0 | herbicidal rating, MOOVA ([15]; rate 0.0320 kg/ha): 0.0 | herbicidal rating, ECHORC ([16]; rate 0.0320 kg/ha): 0.0 | herbicidal rating, ECHORC ([16]; rate 0.1250 kg/ha): 0.0
